Laboratory results: paper PMC7590976, “Detection of Active Granzyme A in NK92 Cells with Fluorescent Activity-Based Probe” (Journal of Medicinal Chemistry, 2020)

Assays:
GrA [1] = target: T1, GrA (Homo sapiens, UniProt P12544); experiment: Second-order inhibition rate constant kobs/I toward GrA, pseudo-first-order conditions; type: biochemical; conditions: GrA; versus 2000 M^–1 s^–1
T1 construct: made in house; host or cells: Pichia pastoris
T1 sequence (P12544 29-262): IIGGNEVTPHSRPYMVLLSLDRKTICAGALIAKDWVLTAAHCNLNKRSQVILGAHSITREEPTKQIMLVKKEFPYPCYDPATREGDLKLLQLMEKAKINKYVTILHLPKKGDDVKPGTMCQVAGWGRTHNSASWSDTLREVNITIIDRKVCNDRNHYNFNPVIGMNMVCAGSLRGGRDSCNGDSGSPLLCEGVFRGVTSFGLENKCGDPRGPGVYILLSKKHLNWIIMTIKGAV
Protocol: We calculated the apparent second-order rate constants for inhibition (kobs(app)/I) of GrA-mediated SK15I under pseudo first-order conditions by serially diluting the new inhibitor in the range of 714–333 nM with a constant optimal substrate (SK15) concentration of 10 μM (Figure 3B).
The second-order inhibition rate constant (kobs/I expressed in M^–1 s^–1) toward GrA was measured under pseudo-first-order kinetic conditions. Ten microliters of substrate (SK15) was mixed with varying inhibitor or probe concentrations and incubated at 37 °C for 15 min. […] Experiments are presented as the average of at least three experiments with standard deviation.

GrK = target: T2, GrK (Homo sapiens, UniProt P49863); experiment: Residual activity assay, GrK; type: biochemical; conditions: 488 nM GrK preincubated with 10 μM compound 30 min 37 °C; 200 μM GrKref
T2 construct: made in house; host or cells: Pichia pastoris
T2 sequence (P49863 27-264): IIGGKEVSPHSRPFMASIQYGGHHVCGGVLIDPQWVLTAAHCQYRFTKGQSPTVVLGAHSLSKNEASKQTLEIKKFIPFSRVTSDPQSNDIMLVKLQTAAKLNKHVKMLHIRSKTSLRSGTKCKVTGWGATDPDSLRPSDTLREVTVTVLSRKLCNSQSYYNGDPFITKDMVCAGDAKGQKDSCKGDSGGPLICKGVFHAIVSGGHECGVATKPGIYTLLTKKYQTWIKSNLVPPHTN
Protocol: (§1) We wondered whether the selectivity of our SK15-based molecules for GrA would be maintained by substrate structure modifications, such as replacing ACC with a diphenyl phosphonate warhead and changing the N-terminus from acetyl to the cyanine derivative Cy5.
(§2) As a control, enzymes without inhibitor and probe were tested.

GrM = experiment: Residual activity assay, GrM; type: biochemical, human; conditions: 74 nM GrM preincubated with 10 μM compound 30 min 37 °C; substrate Ac-Lys-Val-Pro-Leu-ACC
Protocol: as §1, §2

GrA [2] = target: T1, GrA; experiment: In-gel detection of recombinant GrA with SK15.5 (SDS-PAGE); type: binding; conditions: SK15I 1 μM, 1 h, 37 °C, then SK15.5 500 nM 1 h
Protocol: Next, we tested the utility of our fluorescent probe for the in-gel detection of active GrA in test samples. […] We then ran a simple SDS-PAGE assay to detect labeled GrA (Figure 4A). […] In our hands, the probe bound to the enzyme, as indicated by the fluorescent 35 kDa species, after the minimal incubation time (5 min). […] The optimal concentration was 500 nM (strong signal) (Figure 4B).
(A) Incubation time of SK15.5 with enzyme optimization. […] (D) GrA in-gel detection in NK92 cell lysates. […] The results are representative of at least 2 replicates.
In contrast to the closely related GrB, GrH, GrM, and GrK, GrA is a homodimer formed by stable disulfide-linked subunits.[26] Since the subunits are oriented in opposite directions, the surrounding area may form an exosite.[26]
In the incubation time optimization assay, the enzyme and probe concentrations were constant (250 nM), and the incubation time ranged from 0 to 120 min. […] Enzyme was incubated with probe in a volume of 80 μL, followed by the reduction with 40 μL of 3 × SDS/DTT for 5 min at 95 °C. Samples were centrifuged (3 min, 4500g), and 40 μL of each sample was run on 4–12% Bis-Tris 10-well gels (Invitrogen). The first well was loaded with 2 μL of the protein marker PageRuler Plus Prestained Protein Ladder (Thermo Scientific). Electrophoresis was conducted at 165 V for 37 min at room temperature. […] Total sample volume was 80 μL, to which 40 μL of 3× SDS/DTT was added and boiled for 5 min at 95 °C. Samples were centrifuged (3 min, 4500g), and 40 μL of each sample was run on 4–12% Bis-Tris 10-well gels (Invitrogen). Each form of the enzyme without SK15.5 and probe itself were run as controls. The first well was loaded with 2 μL of protein marker PageRuler Plus Prestained Protein Ladder (Thermo Scientific). Electrophoresis and membrane transfer were conducted in the same manner as above.

GrA [3] = experiment: Residual activity assay, GrA preinhibited with SK15I or SK15.5; type: biochemical, human; conditions: substrate SK15; preincubation 30 min, 37 °C
Protocol: as §1, §2

PR3 = experiment: Residual activity assay, PR3; type: biochemical; conditions: 3.4 nM PR3 preincubated with 10 μM compound 30 min 37 °C; substrate Ac-Glu(O-Bzl)-Lys(Ac)-Hyp(Bzl)-Nva-ACC
Protocol: as §1, §2

hNE = experiment: Residual activity assay, hNE; type: biochemical, human; conditions: 3.3 nM hNE preincubated with 10 μM compound 30 min 37 °C; substrate Ac-Arg(NO)2-Glu(Bzl)-Oic-Abu-ACC
Protocol: as §1, §2

GrA in NK92 cells = experiment: SK15.5 cell membrane permeability assay / GrA labeling in live NK92 cells; type: cell-based, human; conditions: SK15I 10 μM, 1 h, prior to 1 μM SK15.5
Protocol: (B) SK15.5 probe cell permeability. […] The results represent two biological replicates.
We noticed a strongly labeled species within 30 min, and the intensity increased until 2 h (Figure 5B). […] As an additional control, immunolabeling was performed and confirmed the selective binding of the probe with GrA (for full size blots, please see Figure S3).
As a control, GrA was preinhibited with 10 μM (final concentration) SK15I and incubated for 1 h at 37 °C, and untreated samples were simultaneously incubated. At the end of every time point, the cells were centrifuged, washed twice with DPBS, centrifuged and treated with 100 μL of 1× SDS/DTT solution. Afterward, the samples were sonicated (10 kHz for 10 s) and loaded onto a 4–12% Bis-Tris 10-well gel (Invitrogen). SDS-PAGE was run at 165 V for 37 min, and membrane transfer (10 V, 60 min) was subsequently performed.

GrB = target: T3, GrB (Homo sapiens, UniProt P10144); experiment: Residual activity assay, GrB; type: biochemical; conditions: 18 nM GrB preincubated with 10 μM compound 30 min 37 °C; 200 μM GrBref
T3 construct: made in house; host or cells: Pichia pastoris
T3 sequence (P10144 21-247): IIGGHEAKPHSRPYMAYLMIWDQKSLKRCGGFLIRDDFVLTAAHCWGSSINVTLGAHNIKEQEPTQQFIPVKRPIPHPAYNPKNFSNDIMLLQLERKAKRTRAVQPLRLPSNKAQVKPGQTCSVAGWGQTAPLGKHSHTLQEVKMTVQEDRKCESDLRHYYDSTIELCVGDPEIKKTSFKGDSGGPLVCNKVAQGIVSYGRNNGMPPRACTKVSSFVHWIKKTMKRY
Protocol: as §1, §2

MDA-MB-231 cells = conditions: MDA-MB-231, 24 h, MTS at 490 nm, 1 nM to 10 μM tested, duplicate

MeOSuc-Tic-Gly-Oic-Arg^P(OPh)2 [SK15I]
kobs/I relative to the reference inhibitor (GrA [1]): approximately 85 fold
inhibition of GrK (GrK): less than 20%
inhibition of GrM (GrM): less than 20%
effect of preinhibition with inhibitor on SK15.5 probe binding to GrA (in words) (GrA [2]): prevented probe binding
residual GrA activity after preinhibition (in words) (GrA [3]): completely blocked
inhibition of PR3 (PR3): less than 20%
inhibition of hNE (hNE): less than 20%
effect of inhibitor pretreatment on SK15.5 probe binding in live cells (in words) (GrA in NK92 cells): substantial decrease in probe binding
inhibition of GrB (GrB): less than 20%
concentration above which cytotoxic (MDA-MB-231 cells): > 10 µM
